From publication PMC6268586, “Effect of Wine and Vinegar Processing of Rhizoma Corydalis on the Tissue Distribution of Tetrahydropalmatine, Protopine and Dehydrocorydaline in Rats” (Molecules, 2012)
Read-outs that look alike come from different tables or passages of the source.

Test: Tissue distribution of THP, DHC and protopine in rat tissues after gastric gavage administration (HPLC-UV, non-compartmental analysis)
Format: in vivo, Wistar male rats
Settings: for AUC(0-t) / Cmax / MRT / Tmax: male, Wistar, po, 6.45 mg/kg; for AUC(0-t): read-out: AUC0–24 h of THP; for Cmax: read-out: Cmax of THP; for MRT: read-out: MRT of THP; for Tmax: read-out: Tmax of THP
Method: The experimental protocol was approved by the University's Animal Ethics Committee. […] Rats had unlimited access to water. Standard food was given until 12 h before the experiments. Rhizoma Corydalis was processed according to Pharmacopoeia of Chinese Medicine and National Guideline of Traditional Chinese Medicinal Plants Processing. Briefly, fresh Rhizoma Corydalis was boiled in water till the pith turn light brown color. Cooked rhizome was sliced into pieces (4 mm, diameter) and dried at 25 °C. Dried slices were mixed with edible vinegar (100:20, rhizome/vinegar, w/v) or yellow wine (100:10, rhizome/wine, w/v) and the slices allowed to completely absorb the vinegar or wine. The soaked slices were then stir-fried in a metallic pan over a low flame till they were completely dry. The processed Rhizoma Corydalis was added with 70% ethanol (1:30 w/v) and sonicated for 1 h at room temperature. The extract was then concentrated to remove the ethanol residue and stored at 4 °C for further use. […] The ethanol extract of the unprocessed Rhizoma Corydalis and THP, DHC and protopine pure compound were used as the controls. Three hundred and sixty healthy rats were used in total and are divided into six groups (Group 1-6, sixty rats per group). Drugs were administrated by gastric gavage method. In order to keep the dose of THP, DHC and protopine constant in each group, the amount of ethanol extract of Rhizoma Corydalis administrated was normalized based on the dose of protopine pure compound used. The dose of THP and DHC pure compound administrated was same with that in the ethanol extract of Rhizoma Corydalis. The details were listed below. […] Rats were administrated with the 70% ethanol extract of unprocessed Rhizoma Corydalis at a dose of 17.75 g extract/kg body weight. […] Rats received the extract of vinegar-processed Rhizoma Corydalis at a dose of 15 g extract/kg rat body weight. Group 3: Rats were administrated with the extract of wine processed Rhizoma Corydalis at a dose of 15.78 g extract/kg body weight. […] Rats received THP pure compound at a dose of 6.45 mg/kg body weight. Group 6: Rats were administrated 26.10 mg of DHC pure compound/kg body weight. […] Brian tissue was further dissected into six parts: cerebrum, cerebellum, diencephalons, brain stem, hippocampus and striatum. All the tissue samples were rinsed with ice-old saline and stored at -20 °C until extraction. Tissue samples were homogenized in three volumes of ice-cold biological saline and centrifuged for 10 min at 10,000 g and 4 °C. An aliquot of the supernatant (0.5 mL) was collected. Liquid-liquid extraction was used to extract THP, DHC and protopine. One hundred microliter of 1.0 μg/mL nuciferin (internal standard) was mixed with 0.5 mL aliquots of the supernatant. […] The supernatant was evaporated completely under the nitrogen stream in a 60 °C water bath. The residue was redissolved in 100 μL of methanol. A CoMetro HPLC system (CoMetro Technology Ltd, South […], NJ, USA) with 6000 PVW detector UV-VIS detector was used. […] Ltd., Liaoning, China). Other chromatographic conditions were: column temperature, 35 °C; mobile phase, acetonitrile-0.1% phosphoric acid (pH 3.0) (30:70 v/v); flow rate, 1 mL/min; wavelength, 280 nm. Pharmacokinetic parameters were estimated by non-compartmental analysis using Equiv Test/PK (Statistical Solutions Ltd., Saugus, MA, USA). The maximum concentration (Cmax) and the time to reach the maximum concentration (Tmax) were directly obtained from the observed value. All data were represented as mean ± SD. Comparison of values between groups was performed using one-way ANOVA followed by Tukey's test for comparisons among four groups.

- AUC(0-t) (rat brainstem): 1490 ± 340 ng·h/mL
- Cmax (rat brainstem): 370 ± 110 ng/mL
- MRT (rat brainstem): 7.53 ± 0.26 h
- Tmax (rat brainstem): 0.25 h
- AUC(0-t) (rat cerebellum): 990 ± 220 ng·h/mL
- Cmax (rat cerebellum): 150 ± 30 ng/mL
- MRT (rat cerebellum): 9.2 ± 0.61 h
- Tmax (rat cerebellum): 0.26 ± 0.02 h
- AUC(0-t) (rat cerebrum): 860 ± 200 ng·h/mL
- Cmax (rat cerebrum): 250 ± 72 ng/mL
- MRT (rat cerebrum): 8 ± 0.25 h
- Tmax (rat cerebrum): 0.26 ± 0.01 h
- AUC(0-t) (rat diencephalons): 1670 ± 380 ng·h/mL
- Cmax (rat diencephalons): 460 ± 130 ng/mL
- MRT (rat diencephalons): 7.7 ± 0.28 h
- Tmax (rat diencephalons): 0.27 ± 0.04 h
- AUC(0-t) (rat heart): 1430 ± 320 ng·h/mL
- Cmax (rat heart): 600 ± 180 ng/mL
- MRT (rat heart): 4.83 ± 0.13 h
- Tmax (rat heart): 0.25 h
- AUC(0-t) (rat hippocampus): 1790 ± 400 ng·h/mL
- Cmax (rat hippocampus): 470 ± 130 ng/mL
- MRT (rat hippocampus): 7.04 ± 0.23 h
- Tmax (rat hippocampus): 0.24 ± 0.05 h
- AUC(0-t) (rat kidney): 6270 ± 1430 ng·h/mL
- Cmax (rat kidney): 2050 ± 570 ng/mL
- MRT (rat kidney): 4.37 ± 0.1 h
- Tmax (rat kidney): 0.33 ± 0.09 h
- AUC(0-t) (rat liver): 5570 ± 2600 ng·h/mL
- Cmax (rat liver): 7840 ± 1740 ng/mL
- MRT (rat liver): 3.99 ± 0.08 h
- Tmax (rat liver): 0.21 ± 0.01 h
- AUC(0-t) (rat lung): 5930 ± 1320 ng·h/mL
- Cmax (rat lung): 1530 ± 450 ng/mL
- MRT (rat lung): 5.34 ± 0.15 h
- Tmax (rat lung): 0.26 ± 0.08 h
- AUC(0-t) (rat spleen): 3270 ± 740 ng·h/mL
- Cmax (rat spleen): 1540 ± 450 ng/mL
- MRT (rat spleen): 4.34 ± 0.09 h
- Tmax (rat spleen): 0.23 h
- AUC(0-t) (rat striatum): 2470 ± 570 ng·h/mL
- Cmax (rat striatum): 720 ± 210 ng/mL
- MRT (rat striatum): 7.69 ± 0.26 h
- Tmax (rat striatum): 0.21 ± 0.03 h
- elimination of THP from the tissues (rat tissues): rarely found after 8 h
- time after administration at which THP was detected in all the tissues examined (rat tissues): ≤ 5 min
Compound: COc1cc2c(cc1OC)[C@@H]1Cc3ccc(OC)c(OC)c3CN1CC2 [THP, tetrahydropalmatine]
